Experiments:
ovarian tumor cell lines = assay: Growth inhibition, ovarian tumor cell lines (FIG. 2); format: cell-based, human; details: all tested ovarian tumor cell lines; 72 hr
Method: The following human ovarian carcinoma cell lines were tested: A2780 was obtained from Dr. R. F. Ozols (National Cancer Institute, Bethesda, Md., USA); IGROV-1 was obtained from Dr. J. Benard (Villejuif, France); OVCA432 was obtained from Dr. R. C. Knapp (Boston, Mass., USA); OAW42 and SKOV-3 were purchased from ATCC (Rockville, Md., USA). A2780/HPR, a 4-HPR— resistant ovarian carcinoma cell line, was obtained in our laboratory by continuous exposure of A2780 cells to increasing concentrations of 4-EPR as previously described (Appierto et al., Br. J. Cancer, 2001, 84:1528–1534; Prinetti et al., J. Biol. Chem., 2003, 278:5574–5583). Briefly, cells surviving 60 transplants in 4-HPR —containing medium (3 transplants at 1 μM, 11 transplants at 2 μM, 8 transplants at 3 μM, and 38 transplants at 5 μM) were cloned by limiting dilution. […] Therefore, A2780/HPR cells were continuously maintained in 5 μM 4-HPR and seeded without 4-HPR in all the experiments performed to test their sensitivity to 4-oxo-4-HPR. […]
For the growth inhibition assays, cells were seeded at a density of 3500 cells per well in 96 cluster tissue culture plates, and treated 24 hr after seeding with different concentrations of 4-oxo-4-HPR or 4-HPR. […] The survival of treated cells was calculated for the various drug concentrations as percentage of the survival of control cells. […]

A2780 [1] = assay: Apoptosis induction (Cell Death Detection ELISA, DNA fragmentation); format: cell-based, human; details: 5 μM, 24 hr
Method: Although the mechanism of action of 4-HPR is not well understood, its tumor growth inhibitory effects have been attributed to apoptosis induction (Supino et al., Int. J. Cancer, 1996, 65:491–497). The apoptosis inducing effects of 4-oxo-4-HPR were compared with those of 4-HPR in the human ovarian carcinoma cell line A2780 and in its counterpart A2780/HPR, with induced resistance to 4-HPR. Apoptosis was evaluated by a Cell Death Detection ELISA Plus Assay Kit (Roche Diagnostic GmbH, Germany) according to the manufacturer's instructions. This assay quantitates the amount of cytoplasmic histone-associated DNA fragments which increases during apoptosis. Cells were seeded in 96-well cell culture plates and treated the day after with 5 μM 4-oxo-4-HPR or 4-HPR for 24 hr.

A2780 [2] = assay: Growth inhibition (sulforhodamine B assay), single agents and combination; format: cell-based, human; details: Homo sapiens, A2780, 72 h, read-out: 50% Inhibitory Concentrations (IC50) at 72 h
Method: The following human ovarian carcinoma cell lines were tested: A2780 was obtained from Dr. R. F. Ozols (National Cancer Institute, Bethesda, Md., USA); IGROV-1 was obtained from Dr. J. Benard (Villejuif, France); OVCA432 was obtained from Dr. R. C. Knapp (Boston, Mass., USA); OAW42 and SKOV-3 were purchased from ATCC (Rockville, Md., USA). A2780/HPR, a 4-HPR— resistant ovarian carcinoma cell line, was obtained in our laboratory by continuous exposure of A2780 cells to increasing concentrations of 4-EPR as previously described (Appierto et al., Br. J. Cancer, 2001, 84:1528–1534; Prinetti et al., J. Biol. Chem., 2003, 278:5574–5583). Briefly, cells surviving 60 transplants in 4-HPR —containing medium (3 transplants at 1 μM, 11 transplants at 2 μM, 8 transplants at 3 μM, and 38 transplants at 5 μM) were cloned by limiting dilution. […] Therefore, A2780/HPR cells were continuously maintained in 5 μM 4-HPR and seeded without 4-HPR in all the experiments performed to test their sensitivity to 4-oxo-4-HPR.
The following human breast tumor cell lines, obtained from Dr. R. Sutherland (Garvan Institute, Sydney, Australia) were tested: T-47D, BT-20 and MCF-7. The following human neuroblastoma cell lines, purchased from ATCC, were tested: SK-N-BE, SK-N-SH, SK-N-MC, and GI-LI-N. All cell lines were grown in monolayer, in medium containing 10% fetal bovine serum (Invitrogen) in 5% CO2 at 37° C. The medium for A2780, A2780/HPR, IGROV-1, OVCA432, SKOV-3, T-47D, BT-20, MCF-7, GI-LI-N and SK-N-BE cells was RPMI 1640 (Cambrex, Verviers, Belgium) and the medium for OAW42, SK-N-MC and SK-N-SH cells was EMEM (ATCC).
For the growth inhibition assays, cells were seeded at a density of 3500 cells per well in 96 cluster tissue culture plates, and treated 24 hr after seeding with different concentrations of 4-oxo-4-HPR or 4-HPR. 4-oxo-4-HPR was dissolved in absolute ethanol and 4-HPR (obtained from Dr. J. A. Crowell —NCI Bethesda, Md., USA) was dissolved in Me2SO. […] Control cultures received the same amount of ethanol or Me2SO as the treated cultures. 72 hr after treatment cell number was estimated by using the sulforhodamine B assay according to Monks et al., (J. Natl. Cancer, 1991, 11: 757–766). The survival of treated cells was calculated for the various drug concentrations as percentage of the survival of control cells. The antiproliferative activity of 4-oxo-4-HPR and 4-HPR in each cell line, was tested in three separate experiments and the average values ±SD are reported in FIGS. 2, 3, and 4.
The antiproliferative effect of the combination of the two drugs, administered at one single dose, was also tested in other ovarian carcinoma cell lines and in breast tumor cell lines. The type of interaction between 4-HPR and 4-oxo-4-HPR was assessed by the method of Drevinko et al., as described in Cancer Biochem. Biophys., 1976, 1:187–195. For this evaluation the drugs were assumed to provide independent effects. The combination index (CI) was calculated as follows: survival fraction (SF) of the combination of 4-HPR+4-oxo-4-HPR divided by (SF 4-HPR×SF 4-oxo-4-HPR). The results for CI are defined as follows: CI=1 indicates an additive effect, CI<1 indicates a supra-additive effect and CI>1 indicates a sub-additive effect.

A2780/HPR = A2780/HPR clone versus A2780; cited from earlier work

SMILES	reducing tumor cell survival (FIG. 2), compared with 4-HPR, in words (ovarian tumor cell lines)	induction of apoptosis (DNA fragmentation, fold versus control cells) (A2780 [1])	IC50 (A2780 [2])	resistance of A2780/HPR to 4-HPR (A2780/HPR)
CC1=C(/C=C/C(C)=C/C=C/C(C)=C/C(=O)Nc2ccc(O)cc2)C(C)(C)CCC1=O [4-oxo-4-HPR, 4-oxo-N-(4-hydroxyphenyl)retinamide]	more effective than 4-HPR	higher than that of 4-HPR	500 nM	
CC1=C(/C=C/C(C)=C/C=C/C(C)=C/C(=O)Nc2ccc(O)cc2)C(C)(C)CCC1 [4-HPR, N-(4-hydroxyphenyl)retinamide, reference compound]				10 fold
